From patent publication US10399971B2, “Compound for treating or preventing hyperuricemia or gout” (JIANGSU ATOM BIOSCIENCE AND PHARMACEUTICAL CO., LTD., priority 2015, dated 2019) come the findings set out here.

The target in one data set is T1, hURAT1 (Homo sapiens, UniProt Q96S37).
T1 sequence (Q96S37 1-553): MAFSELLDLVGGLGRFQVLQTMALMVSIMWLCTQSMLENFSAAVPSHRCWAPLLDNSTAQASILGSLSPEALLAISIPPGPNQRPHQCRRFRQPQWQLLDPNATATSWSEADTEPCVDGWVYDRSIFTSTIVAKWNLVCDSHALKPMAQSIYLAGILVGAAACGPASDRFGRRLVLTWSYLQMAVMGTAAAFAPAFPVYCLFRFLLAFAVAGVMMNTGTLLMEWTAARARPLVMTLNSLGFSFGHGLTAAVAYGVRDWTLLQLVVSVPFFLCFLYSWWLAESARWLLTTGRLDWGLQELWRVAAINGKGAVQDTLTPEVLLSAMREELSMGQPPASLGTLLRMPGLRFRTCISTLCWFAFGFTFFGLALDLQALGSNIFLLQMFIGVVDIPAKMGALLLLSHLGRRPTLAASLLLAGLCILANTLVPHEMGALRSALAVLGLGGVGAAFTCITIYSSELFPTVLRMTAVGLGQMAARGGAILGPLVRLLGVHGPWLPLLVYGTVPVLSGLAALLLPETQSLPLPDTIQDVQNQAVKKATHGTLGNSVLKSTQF
Put plainly: Inhibition assay of uric acid transport in HEK293-hURAT1 transfection cell line. Particulars: 500 nM; HEK293-hURAT1 transfection cell line; 14C-uric acid; average of three tests; 0.5 µM. Type of data set: cell-based. As to the method: 2.1 Construction of a HEK293 stable cell line with high expression of hURAT1: The plasmid pCMV6-hURAT1 was transfected into HEK293 cells, then the stable strain was obtained by the G418 (final concentration 500 μg/mL) resistance screening, which is the high expression of hURAT1 transporter membrane protein.
2.2 To a coated 24-well plate was added 200 μL of 0.1 mg/mL poly-lysine per well and the plate was left overnight. Poly-lysine was removed from wells. The wells were cleaned thoroughly with aseptic water and dried for use.
2.3 To the above coated 24 well plate was added HEK293-hURAT1 stable cells (2×10^5 cells per well). The cells was cultured at 37° C. under 5% CO2 for 3 days.
The solution was fully mixed to give HBSS buffer (pH value: 7.4). The buffer was stored at −20° C.
2.5 The HBSS buffer was warmed to 37° C. in a water bath. Washed cells with HBSS twice, added 160 μL of HBSS and 20 μL test compound per well. The final concentration of tested compound per well is 500 nM. The blank control well contains only 180 μL of HBSS without tested compound. The plate was placed at room temperature for 30 min.
2.6 To each well was added 20 μL of 50 μM ^14C-Uric acid. The plate was placed at room temperature for 20 min.
2.7 The solution in each well was removed and the cells in each well were washed with pre-cooled HBSS buffer. To each well was added 0.2 M NaOH to dissolve the cells. The solution containing cell fragments was collected and the right amount of scintillation liquid was added.
The formula for calculating the inhibitory rate of uric acid transport for compounds was shown as below: […]

A further data set relates to hyperuricemia mice. Kind of data set: Uric acid excretion test in hyperuricemia mice. It counts as in vivo, Kunming mice. The note with it: 15 mg/kg oral. As to the method:
Species: Kingming mice (Clean Level); body weights: 25 to 30 g; ages: 4 to 5 weeks; sex: male. These mice were purchased from Shanghai SLAC Laboratory Animal Co., Ltd. Certificate No.: SCXK (HU) 2012-2002. Animal quality certificate number: 2015000522173.
A certain amount of adenine and yeast extract powder was weighted and a certain amount of double distilled water was added. The mixture was stirred at about 60° C. for 40 min to give a suspension, which the concentration of yeast extract is 0.6 g/mL and the concentration of adenine is 12 mg/mL.
A suspension of 20 mg/mL potassium oxonate was prepared by mixing a certain amount of potassium oxonate with 0.5% CMC-Na solution before use.
Male Kunming mice were randomly divided into four groups: blank control group, model group, compound 74 group, and benzbromarone group. Each group has six mice. All mice fasted 2 to 3 h before use. The model group, benzbromarone group, and compound 74 group were orally given a suspension of yeast extract and adenine prepared above to reach the final dosage of 10 g/kg (body weight) of yeast extract and 200 mg/kg (body weight) of adenine, respectively. The blank control group was only given same volume of normal saline orally. After 2.5 h, all mice in compound 74 group and benzbromarone group were given 10 mL/kg of suspension of compound 74 (1.5 mg/mL) and 10 mL/kg of suspension of benzbromarone (1.5 mg/mL), respectively. The blank control group and model group were orally given same volume of 0.5% CMC-Na solution. All animals were treated in the same way for seven days by using administration methods described above. On the last day, after administration of a suspension of yeast extract and adenine for the model group, compound 74 group, and benzbromarone group, all mice in these three groups were given 12.5 mL/kg of potassium oxonate (20 mg/mL) by i.p. The blank control was only given same volume of 0.5% CMC-Na solution by i.p. After 30 min, compound 74 and benzbromarone were administrated orally to the mice at same dosages as above in compound 74 group and benzbromarone group, respectively. The blank control group and model group were orally given same volume of 0.5% CMC-Na solution.
Collection of urine samples: All mice were placed in metabolic cages with normal diet individually after giving test compounds on the last day. 24 h urine was collected and the urine volume was measured. The urine was centrifugated at 3000 rpm for 20 min and the supernatant was collected.
Detection of the concentration of uric acid of mice urine samples: uric acid concentration in samples was detected by using uric acid assay kit (phosphotungstic acid method) followed the procedures described in the instruction.

Another data set in a line: in vivo. Particulars: both, SD, rat, po.

Text for in vivo: Rats were randomly divided into group A1, group B1 and blank control group. Each group has 10 of rats with half male and half female.

On to `CCc1nc2ccccn2c1C(=O)c1cc(Br)c(O)c(C#N)c1` [Compound 74, 3-bromo-5-(2-ethylimidazo[1,2-a]pyridine-3-carbonyl)-2-hydroxybenzonitrile hydrogen chloride], for which the “Inhibitory rates of uric acid transport, ±SD (%)” value on hURAT1 is recorded as 62.75 ± 5.73%. For the same molecule, the “uric acid excretion increased compared with the model group” value in the data set on hyperuricemia mice (increase over model group) is on record as “about 46.77%”. In addition, the “Changes of uric acid excretion (compared with model group, %)” value with hyperuricemia mice (model group set to 100%) was 146.77%. Besides, the “Uric acid in urine for 24 h, ±SD” value with hyperuricemia mice (seven days, 6 mice) is 15.69 ± 1.53 mmol. Besides, the MTD at 14 days in “in vivo” is 5000 mg/kg.
